Test results: patent publication US20040259942A1, “Modulation of stat activity” (priority 2001, published 2004)

Key:
MCF-10F cells = conditions: previously shown (refs 5, 11); cited from earlier work
STAT3 [1] = assay: STAT3 activation by conditioned medium (CM) from serum-stimulated BR293 cells; format: cell-based, human; conditions: serum-starved BR293 cells treated with AG490
Method: OdDHL blocks the autocrine release of mitogens from BC cells (a) Equal numbers of BR293 cells were cultured in MEM alone, serum-free MEM conditioned by serum-stimulated BR293 cells for 2 hours, or the same supplemented with 5% FCS, as indicated. After 24 hours [^3H]-thymidine was added to the medium. After a further 18 hours, cells were harvested and analysed for incorporation of ^3H. Error bars denote SD (n=4). (b) BR293 cells were serum-starved (lane 1) or starved and stimulated with 10% FCS for 2 hours directly (lane 2) or after pretreatment with α-amanitin (1004/ml) for 2.5 hours (lane 3) or actinomycin D ([…]) for 10 min (lane 4). […] Cell lysates were prepared and analysed by Western blotting as described in the legend to FIG. 1a. […] Lysates were prepared from all the cells and analysed by Western blotting as described in the legend to FIG. 1a.
Serum-starved BR293 cells were stimulated with 10% foetal calf serum (FCS) and, after 2 hours, half the cells were harvested while the other cells were washed thoroughly and incubated for a further 4 hours in serum-free medium. […] Nuclear extracts were made from all the cells and analysed for STAT DNA-binding. […]

JAK2 = biological target: T1, JAK2 (Homo sapiens, UniProt O60674); assay: Serum-induced JAK2 tyrosine phosphorylation (immunoblot); format: cell-based; conditions: BR293 cells; 2 hour time course; AG490 pre-treatment
T1 construct: endogenous in cells; host or cells: BR293
T1 sequence (O60674 whole entry): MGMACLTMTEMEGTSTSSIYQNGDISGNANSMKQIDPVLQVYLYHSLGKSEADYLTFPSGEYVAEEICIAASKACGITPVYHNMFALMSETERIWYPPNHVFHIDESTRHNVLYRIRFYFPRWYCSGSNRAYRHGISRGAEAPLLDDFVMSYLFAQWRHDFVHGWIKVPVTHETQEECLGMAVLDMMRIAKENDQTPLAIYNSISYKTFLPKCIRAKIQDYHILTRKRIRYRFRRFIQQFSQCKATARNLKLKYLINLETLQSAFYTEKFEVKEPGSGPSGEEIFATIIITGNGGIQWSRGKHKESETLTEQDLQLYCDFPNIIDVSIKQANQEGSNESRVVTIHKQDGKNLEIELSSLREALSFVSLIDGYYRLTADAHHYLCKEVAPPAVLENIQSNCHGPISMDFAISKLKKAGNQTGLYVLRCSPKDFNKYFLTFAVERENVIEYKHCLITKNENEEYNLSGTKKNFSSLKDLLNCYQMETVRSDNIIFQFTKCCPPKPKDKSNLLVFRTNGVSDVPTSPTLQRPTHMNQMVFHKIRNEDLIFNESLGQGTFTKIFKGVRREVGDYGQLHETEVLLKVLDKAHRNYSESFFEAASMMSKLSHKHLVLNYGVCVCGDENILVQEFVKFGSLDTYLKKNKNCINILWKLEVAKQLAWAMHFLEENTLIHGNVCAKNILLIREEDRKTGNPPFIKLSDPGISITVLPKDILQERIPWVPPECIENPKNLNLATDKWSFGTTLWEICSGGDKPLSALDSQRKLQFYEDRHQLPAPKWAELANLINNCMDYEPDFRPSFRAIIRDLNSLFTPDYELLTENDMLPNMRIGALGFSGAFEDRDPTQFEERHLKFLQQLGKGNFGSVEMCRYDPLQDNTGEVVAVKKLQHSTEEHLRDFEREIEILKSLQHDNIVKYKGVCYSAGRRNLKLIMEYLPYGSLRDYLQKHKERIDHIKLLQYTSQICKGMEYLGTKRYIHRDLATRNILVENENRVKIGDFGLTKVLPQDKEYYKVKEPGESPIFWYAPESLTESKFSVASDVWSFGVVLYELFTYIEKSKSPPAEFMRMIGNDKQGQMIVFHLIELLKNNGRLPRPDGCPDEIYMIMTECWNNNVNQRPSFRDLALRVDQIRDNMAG
Method: (§1) For immunoprecipitation and immunoblotting experiments, cells were grown to confluence in 10 cm dishes and maintained in full medium or starved in serum-free medium overnight before the application of appropriate stimuli. Lysates were prepared in TBSN buffer (50 mM Tris-HCl pH7.5, 150 mM NaCl, 1 mM EDTA, 1% NP-40) supplemented with protease inhibitors (1 mM Na3 VO4, 10 mM Na4P2O7, 10 mM NaF, 5 mM EGTA, 10 mM Benzamidine, 0.2 mM PMSF and 1 μg/ml each of leupeptin, aprotinin, pepstatin). Lysates were cleared by centrifugation at 16,000×g for 10 minutes and used directly for immunoprecipitations or stored at −20° C. for further use.
(§2) Equal amounts of lysates were incubated with the appropriate antibody for 2 hours at 4° C.
(§3) Immune complexes were then allowed to bind to protein A-Sepharose beads for 1 hour at 4° C. and collected by centrifugation. Immunoprecipitates were washed three times in 100 mM Tris-HC1 pH 7.5, 100 nM NaCl, 1 mM EDTA, 0.1 mM PMSF, 0.5% NP-40. Thereafter, samples were taken up in sodium dodecyl sulphate (SDS) loading buffer and boiled for 5 min.
(§4) Samples were separated by electrophoresis through 6% polyacrylamide-SDS gels. Proteins were then transferred to polyvinylidene difluoride (PVDF) membranes with a semi-dry electroblotting apparatus. […]

BR293 cells = assay: Cell proliferation assay (cell counting); format: cell-based, human; conditions: for effect on proliferation over 48 hours: PD 153035 100 nM, PD 168393 2 μM
Method: (§5) Equal numbers of BR293 and MDA-MB-468 cells were seeded in MEM containing 10% FCS into 10 cm dishes. […]. For the 48 time points, fresh medium containing the appropriate inhibitor was applied to the cells after 24 hours. Controls were allowed to grow for 48 hours in the absence of inhibitor. Thereafter, all the cells were washed twice with ice cold PBS, harvested and counted under a phase-contrast microscope. Values are expressed as averages+S.D. (n=3).
(§6) Equal numbers of BR293, MCF-10F, MCF-7, MDA-MB-468, HKEK293 and COS1 cells were seeded in the appropriate growth medium into 10 cm dishes. Cells were allowed to grow in the presence of various concentrations of OdDHL or OHHL for 24 or 48 hours. For the 48-hour time points, fresh medium containing the appropriate inhibitor was applied to the cells after 24 hours. Controls were allowed to grow for 48 hours in the absence of inhibitor. Thereafter, all the cells were washed twice with ice cold PBS, harvested and counted under a phase-contrast microscope. Values are expressed as averages ±S.D. (n=3).

MDA-MB-468 cells = assay: Cell proliferation assay (cell counting); format: cell-based, human; conditions: for effect on proliferation over 48 hours: PD 153035 100 nM, PD 168393 2 μM
Method: as §5, §6

STAT3 [2] = assay: Serum-induced STAT3 tyrosine phosphorylation (immunoblot); format: cell-based, human; conditions: BR293 cells; full medium, 2 hour time course; AG490 pre-treatment
Method: as §1, §2, §3
Samples were separated by electrophoresis through 6% polyacrylamide-SDS gels. Proteins were then transferred to polyvinylidene difluoride (PVDF) membranes with a semi-dry electroblotting apparatus. The membranes were incubated with appropriate primary antibodies at room temperature for 1 hour or 4° C. overnight according to suppliers' instructions, washed and stained with horseradish peroxidase-coupled secondary antibodies. The membranes were developed with an enhanced chemiluminescence kit (Amersham).
as §1, with “Na3VO4,” for “Na3 VO4,”, “aprotinin and” for “aprotinin,”, “use. AG490 was purchased from Sigma; PD153035 was provided by Glaxo-Smith-Kline and PD168393 was purchased from Calbiochem.” for “use.”
as §3, with “Equal amounts of lysates were incubated with the appropriate antibody for 2 hours at 4° C. Immune” for “Immune”, “in 10” for “in 100”, “mM Tris-HCl” for “mM Tris-HC1”, “100 mM” for “100 nM”

STAT3 [3] = assay: Weak constitutive STAT3 DNA-binding in serum-starved cells (EMSA supershift); format: cell-based, human
BC cell = conditions: ref (7); cited from earlier work
ErbB2 = assay: Tyrosine phosphorylation of ErbB2: immunoprecipitation and anti-phosphotyrosine immunoblot; format: cell-based, human; conditions: EGF
Method: as §1, §2, §3, §4

ErbB3 = assay: Tyrosine phosphorylation of ErbB3: immunoprecipitation and anti-phosphotyrosine immunoblot; format: cell-based, human
Method: as §1, §2, §3, §4

## N#C/C(=C/c1ccc(O)c(O)c1)C(=O)NCc1ccccc1 [AG490]
MCF-10F cells
  sensitivity to JAK inhibitor: insensitive
STAT3 [1]
  STAT3 activation by conditioned medium from BR293 cells: no inhibition was observed
JAK2
  serum-stimulated tyrosine phosphorylation of JAK2: blocked
BR293 cells; AG490 100 μM, over 48 hours
  reduction of cell proliferation: > 75%
MDA-MB-468 cells; AG490 100 μM, over 48 hours
  reduction of cell proliferation: > 75%
STAT3 [2]
  serum-stimulated STAT3 tyrosine phosphorylation: blocked
STAT3 [3]; BT20 and MDA-MB-468 cells, 100 μM
  weak STAT3 DNA-binding: unaffected
BC cell
  BC cell proliferation: inhibits BC cell proliferation

## COc1cc2ncnc(Nc3cccc(Br)c3)c2cc1OC [PD 153035]
BR293 cells
  effect on proliferation over 48 hours: no effect on their proliferation
MDA-MB-468 cells
  effect on proliferation over 48 hours: no effect on their proliferation
STAT3 [3]; MDA-MB-468 cells, 100 nM
  weak, heterogeneous DNA-binding by STAT3 in extracts from serum-starved cells: had no effect

## C=CC(=O)Nc1ccc2ncnc(Nc3cccc(Br)c3)c2c1 [PD 168393]
BR293 cells
  effect on proliferation over 48 hours: no effect on their proliferation
MDA-MB-468 cells
  effect on proliferation over 48 hours: no effect on their proliferation

## EGF: Epidermal Growth Factor, used as stimulus
ErbB2; BR293 cells
  stimulation of ErbB2 tyrosine phosphorylation: 3.2 fold
ErbB2; T47D cells
  stimulation of ErbB2 tyrosine phosphorylation: 5.7 fold
ErbB3; cell line co-expressing ErbB1, first value printed (cell line not given)
  induction of ErbB3 tyrosine phosphorylation: 6.6 fold
ErbB3; cell line co-expressing ErbB1, second value printed (cell line not given)
  induction of ErbB3 tyrosine phosphorylation: 6.3 fold
